Source: EPA's ToxRefDB 2

Columns and labels:
[1] = tested on: rat; conditions: Subchronic oral toxicity in rodents, fischer, Feed, dose end: 11 week, group: systemic, systemic / in life observation / body weight / body weight
[2] = tested on: mouse; conditions: Carcinogenicity; b6c3f1; Oral; Feed; dose end: 101 week; group: systemic; systemic / in life observation / body weight / body weight + systemic / pathology microscopic / urinary bladder / inflammation
[3] = tested on: rat; conditions: Carcinogenicity, fischer, Oral, Feed, dose end: 100 week, group: systemic
[4] = tested on: rabbit; conditions: Subchronic dermal toxicity, new zealand white, Topical, dose end: 13 week, group: systemic, systemic / in life observation / clinical signs / erythema + systemic / pathology gross / skin / [other] + systemic / pathology microscopic…
[5] = systemic / in life observation / body weight / body weight + systemic / pathology gross / eye / opacity

With O=NN(c1ccccc1)c1ccccc1 [N-Nitrosodiphenylamine] the LEL [1] was 200 mg/kg/day, the LOAEL [1] was 200 mg/kg/day and the LEL [2] was 347 mg/kg/day. For the same compound, the LOAEL [2] was 347 mg/kg/day, the NEL [2] was < 347 mg/kg/day and the NOAEL [2] was < 347 mg/kg/day. For the same compound, the LEL [3, 5] was 50 mg/kg/day, the NEL [3, 5] was < 50 mg/kg/day and the LOAEL ([3]; systemic / pathology microscopic / urinary bladder / hyperplasia) was 200 mg/kg/day. The NOAEL ([3]; systemic / pathology microscopic / urinary bladder / hyperplasia + systemic / in life observation / body weight / body weight + systemic / …) was 50 mg/kg/day.

For O=C([O-])c1ccc2ccccc2c1.O=C([O-])c1ccc2ccccc2c1.[Zn+2] [Zinc naphthenate], the NOAEL [4] was < 100 mg/kg/day.
